Measured values: ChEMBL document CHEMBL1130372, “Synthesis and evaluation of putative oxocarbenium intermediate mimic in the KDO8P synthase-catalyzed reaction as a tool for the design of potent inhibitors for lipopolysaccharide biosynthesis” (Bioorg Med Chem Lett, 1997)

Experiment: The inhibitory activity was evaluated against homogeneous KDO 8-P synthase from Escherichia coli by varying PEP at saturating concentrations of A5P (0.5 mM)

## O=C(O)CN(CC(O)C(O)C(O)[C@H](O)COP(=O)(O)O)CP(=O)(O)O (stereo partly specified)
  Ki: 3.3 µM
